Measurements taken from patent US20220202783A1, “Use Of ADAM9 Inhibitor As Immunomodulator” (China Medical University, priority 2019, published 2022).

How the values were obtained:
Assay type in all cases: cell-based
MiaPaCa = assay: cytotoxicity on pancreatic cancer cells, MiaPaCa; settings: Homo sapiens, MIA PaCa-2
Description: In addition, the IC50 values (unit is μM) of the compound SW1 and the compound SW2 on pancreatic cancer cells were measured in the experiment.

[1] = test system: human esophageal cancer cells CE146T; assay: cytokine RNA expression by RT-qPCR, CE146T; settings: 5 μM, 24 hours
Description: (§1) We further analyzed whether the treatment of the ADAM9 inhibitor can stimulate tumor cells to secrete cytokines to activate the anti-tumor immunity of the ADAM9 inhibitor. In the experiment, human colon cancer cells SW620 and human pancreatic cancer cells PANC-1 were treated with 12.5 μM of the compound SW1, and human esophageal cancer cells C[…] were treated with 5 μM of the compound SW1. After 24 hours, the cells were collected and the RNA expression levels of CXCL10, CXCL11, CXC3CL1 and IFNB were detected by RT-qPCR. CXCL10, CXCL11 and […] are cytokines that promote the immune response of CD8^+ T cells, and IFNB is a cytokine with anti-cancer effects. Please refer to FIGS. 10A, 10B and 10C, which show the analysis results of the ADAM9 inhibitor stimulated tumor cells to secrete cytokines.

[2] = test system: human pancreatic cancer cells PANC-1; assay: cytokine RNA expression by RT-qPCR, PANC-1; settings: 12.5 μM, 24 hours
Description: as §1

SMILES | IC50 (MiaPaCa) [µM] | RNA expression levels of CXCL10, CXCL11, CXC3CL1 and IFNB [1] | RNA expression levels of CXCL10, CXCL11, CXC3CL1 and IFNB [2]
O=C(Nc1nc(CCN2C(=O)c3ccccc3C2=O)cs1)c1cc2ccccc2s1 [SW2] | 8.5 |  | 
O=C1c2ccccc2C(=O)N1CCc1csc(Nc2nc(CCN3C(=O)c4ccccc4C3=O)cs2)n1 [SW1] |  | increase the expressions of CXCL10, CXCL11, CXC3CL1 and IFNB | increase the expressions of CXCL10, CXCL11, CXC3CL1 and IFNB
